Test results reported in ChEMBL document CHEMBL2331241, “Synthesis of C-cinnamoyl glycosides and their inhibitory activity against mammalian carbonic anhydrases” (Bioorg Med Chem, 2013).

Each compound was assayed against Carbonic anhydrase 9 (Homo sapiens, UniProt Q16790) (assay: Inhibition of human carbonic anhydrase 9 preincubated for 15 mins by CO2 hydration stopped-flow assay).

SMILES | Ki
CC(=O)OC[C@H]1O[C@@H](CC(=O)/C=C/c2cccc(O)c2)[C@H](OC(C)=O)[C@@H](OC(C)=O)[C@@H]1OC(C)=O | 5.2 µM
CC(=O)OC[C@H]1O[C@@H](CC(=O)/C=C/c2ccc(O)cc2)[C@H](OC(C)=O)[C@@H](OC(C)=O)[C@@H]1OC(C)=O | 5.9 µM
CC(=O)OC[C@H]1O[C@@H](CC(=O)/C=C/c2ccc(O)cc2)[C@H](OC(C)=O)[C@@H](OC(C)=O)[C@H]1OC(C)=O | 2.9 µM

Continued, values first:

Ki | SMILES
3.3 µM | CC(=O)OC[C@H]1O[C@@H](CC(=O)/C=C/c2cccc(O)c2)[C@H](OC(C)=O)[C@@H](OC(C)=O)[C@H]1OC(C)=O
4.5 µM | O=C(/C=C/c1cccc(O)c1)C[C@@H]1O[C@H](CO)[C@@H](O)[C@H](O)[C@H]1O
9.2 µM | O=C(/C=C/c1cccc(O)c1)C[C@@H]1O[C@H](CO)[C@H](O)[C@H](O)[C@H]1O
8.2 µM | O=C(/C=C/c1ccc(O)cc1)C[C@@H]1O[C@H](CO)[C@H](O)[C@H](O)[C@H]1O
8.2 µM | O=C(/C=C/c1ccc(O)cc1)C[C@@H]1O[C@H](CO)[C@@H](O)[C@H](O)[C@H]1O

The compounds below were run against Carbonic anhydrase 6 (Homo sapiens, UniProt P23280) (assay: Inhibition of human carbonic anhydrase 6 preincubated for 15 mins by CO2 hydration stopped-flow assay).
Sequence of Carbonic anhydrase 6 (P23280 whole entry): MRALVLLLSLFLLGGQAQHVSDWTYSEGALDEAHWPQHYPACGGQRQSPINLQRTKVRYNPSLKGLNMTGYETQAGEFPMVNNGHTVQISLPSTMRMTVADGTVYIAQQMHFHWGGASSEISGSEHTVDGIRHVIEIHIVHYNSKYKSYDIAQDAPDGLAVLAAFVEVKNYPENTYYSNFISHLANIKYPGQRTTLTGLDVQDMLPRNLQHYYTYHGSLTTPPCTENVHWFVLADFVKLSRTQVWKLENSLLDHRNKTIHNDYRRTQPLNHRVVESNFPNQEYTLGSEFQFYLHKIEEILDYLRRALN

Ki | SMILES
> 100 µM | O=C(/C=C/c1ccc(O)cc1)C[C@@H]1O[C@H](CO)[C@H](O)[C@H](O)[C@H]1O
> 100 µM | O=C(/C=C/c1ccc(O)cc1)C[C@@H]1O[C@H](CO)[C@@H](O)[C@H](O)[C@H]1O

What follows are compounds tested against Carbonic anhydrase 3 (Homo sapiens, UniProt P07451) (assay: Inhibition of human carbonic anhydrase 3 preincubated for 15 mins by CO2 hydration stopped-flow assay).
Sequence of Carbonic anhydrase 3 (P07451 whole entry): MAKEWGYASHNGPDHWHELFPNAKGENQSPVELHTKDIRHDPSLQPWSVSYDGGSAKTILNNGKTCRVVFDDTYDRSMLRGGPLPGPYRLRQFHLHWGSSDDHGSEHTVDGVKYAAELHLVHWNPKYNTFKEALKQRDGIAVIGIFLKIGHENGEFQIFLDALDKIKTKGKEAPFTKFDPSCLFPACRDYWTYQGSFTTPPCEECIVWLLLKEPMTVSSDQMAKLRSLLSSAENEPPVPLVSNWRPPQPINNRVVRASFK

SMILES | Ki
CC(=O)OC[C@H]1O[C@@H](CC(=O)/C=C/c2cccc(O)c2)[C@H](OC(C)=O)[C@@H](OC(C)=O)[C@@H]1OC(C)=O | > 100 µM
CC(=O)OC[C@H]1O[C@@H](CC(=O)/C=C/c2ccc(O)cc2)[C@H](OC(C)=O)[C@@H](OC(C)=O)[C@@H]1OC(C)=O | > 100 µM
CC(=O)OC[C@H]1O[C@@H](CC(=O)/C=C/c2ccc(O)cc2)[C@H](OC(C)=O)[C@@H](OC(C)=O)[C@H]1OC(C)=O | > 100 µM

Next, values leading:

Ki | SMILES
> 100 µM | CC(=O)OC[C@H]1O[C@@H](CC(=O)/C=C/c2cccc(O)c2)[C@H](OC(C)=O)[C@@H](OC(C)=O)[C@H]1OC(C)=O
> 100 µM | O=C(/C=C/c1cccc(O)c1)C[C@@H]1O[C@H](CO)[C@@H](O)[C@H](O)[C@H]1O
> 100 µM | O=C(/C=C/c1cccc(O)c1)C[C@@H]1O[C@H](CO)[C@H](O)[C@H](O)[C@H]1O
8.4 µM | O=C(/C=C/c1ccc(O)cc1)C[C@@H]1O[C@H](CO)[C@H](O)[C@H](O)[C@H]1O
> 100 µM | O=C(/C=C/c1ccc(O)cc1)C[C@@H]1O[C@H](CO)[C@@H](O)[C@H](O)[C@H]1O

What follows are compounds tested against Carbonic anhydrase 5B, mitochondrial (Homo sapiens, UniProt Q9Y2D0).
Sequence of Carbonic anhydrase 5B, mitochondrial (Q9Y2D0 whole entry): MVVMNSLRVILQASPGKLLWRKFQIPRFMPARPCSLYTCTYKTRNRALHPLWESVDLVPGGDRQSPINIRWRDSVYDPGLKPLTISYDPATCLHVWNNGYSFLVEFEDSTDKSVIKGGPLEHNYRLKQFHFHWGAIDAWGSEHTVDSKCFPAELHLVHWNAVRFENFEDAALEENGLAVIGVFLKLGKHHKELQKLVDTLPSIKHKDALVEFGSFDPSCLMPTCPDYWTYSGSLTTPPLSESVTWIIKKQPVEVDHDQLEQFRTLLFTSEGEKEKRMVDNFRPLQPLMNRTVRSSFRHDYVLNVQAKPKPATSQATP
Description: Inhibition of human carbonic anhydrase 5B preincubated for 15 mins by CO2 hydration stopped-flow assay

Ki | SMILES
> 100 µM | O=C(/C=C/c1cccc(O)c1)C[C@@H]1O[C@H](CO)[C@@H](O)[C@H](O)[C@H]1O
> 100 µM | O=C(/C=C/c1cccc(O)c1)C[C@@H]1O[C@H](CO)[C@H](O)[C@H](O)[C@H]1O
> 100 µM | O=C(/C=C/c1ccc(O)cc1)C[C@@H]1O[C@H](CO)[C@H](O)[C@H](O)[C@H]1O
> 100 µM | O=C(/C=C/c1ccc(O)cc1)C[C@@H]1O[C@H](CO)[C@@H](O)[C@H](O)[C@H]1O
